Data: ChEMBL document CHEMBL2401658, “Selectivity of phenothiazine cholinesterase inhibitors for neurotransmitter systems” (Bioorg Med Chem Lett, 2013)

What was measured:
[1] = biological target: Sodium-dependent dopamine transporter (Homo sapiens, UniProt Q01959); assay: Antagonist activity at DAT (unknown origin) by PDSP assay
D(3) dopamine receptor = D(3) dopamine receptor (Homo sapiens, UniProt P35462); assay: Antagonist activity at dopamine D3 receptor (unknown origin) by PDSP assay
[2] = biological target: 5-hydroxytryptamine receptor 6 (Homo sapiens, UniProt P50406); assay: Antagonist activity at serotonin 5HT6 receptor (unknown origin) by PDSP assay
[3] = biological target: Beta-3 adrenergic receptor (Homo sapiens, UniProt P13945); assay: Antagonist activity at adrenergic beta3 receptor (unknown origin) by PDSP assay
[4] = biological target: T1, 5-hydroxytryptamine receptor 2C (Homo sapiens, UniProt P28335); assay: Antagonist activity at serotonin 5HT2C receptor (unknown origin) by PDSP assay
T1 sequence (P28335 whole entry): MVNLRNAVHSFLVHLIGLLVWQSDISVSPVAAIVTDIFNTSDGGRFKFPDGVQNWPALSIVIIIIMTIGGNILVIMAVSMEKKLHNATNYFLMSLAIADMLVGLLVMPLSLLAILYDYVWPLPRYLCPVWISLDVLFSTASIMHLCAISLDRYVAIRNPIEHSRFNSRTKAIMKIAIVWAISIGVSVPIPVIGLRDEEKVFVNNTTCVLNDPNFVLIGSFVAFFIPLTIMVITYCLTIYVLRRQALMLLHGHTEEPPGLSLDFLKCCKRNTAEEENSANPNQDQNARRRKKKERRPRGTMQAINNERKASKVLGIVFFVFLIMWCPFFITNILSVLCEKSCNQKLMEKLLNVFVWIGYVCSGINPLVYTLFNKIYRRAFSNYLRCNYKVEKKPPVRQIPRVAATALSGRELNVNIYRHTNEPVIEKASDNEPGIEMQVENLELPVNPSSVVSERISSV

[5] = biological target: T2, 5-hydroxytryptamine receptor 1A (Homo sapiens, UniProt P08908); assay: Antagonist activity at serotonin 5HT1A receptor (unknown origin) by PDSP assay
T2 sequence (P08908 whole entry): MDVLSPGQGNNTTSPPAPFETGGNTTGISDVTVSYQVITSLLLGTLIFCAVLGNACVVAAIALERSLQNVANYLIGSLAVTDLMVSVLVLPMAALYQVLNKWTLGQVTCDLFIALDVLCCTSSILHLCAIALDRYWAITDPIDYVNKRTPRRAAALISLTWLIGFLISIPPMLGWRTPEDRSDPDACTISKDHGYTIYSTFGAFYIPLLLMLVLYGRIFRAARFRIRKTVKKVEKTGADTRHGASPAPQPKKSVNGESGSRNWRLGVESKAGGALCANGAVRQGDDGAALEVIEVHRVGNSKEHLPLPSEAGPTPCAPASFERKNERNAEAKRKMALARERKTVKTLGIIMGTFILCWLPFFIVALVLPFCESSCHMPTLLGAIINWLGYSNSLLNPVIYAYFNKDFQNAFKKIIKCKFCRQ

[6] = biological target: 5-hydroxytryptamine receptor 2B (Homo sapiens, UniProt P41595); assay: Antagonist activity at serotonin 5HT2B receptor (unknown origin) by PDSP assay
Chain of 5-hydroxytryptamine receptor 2B (P41595 whole entry): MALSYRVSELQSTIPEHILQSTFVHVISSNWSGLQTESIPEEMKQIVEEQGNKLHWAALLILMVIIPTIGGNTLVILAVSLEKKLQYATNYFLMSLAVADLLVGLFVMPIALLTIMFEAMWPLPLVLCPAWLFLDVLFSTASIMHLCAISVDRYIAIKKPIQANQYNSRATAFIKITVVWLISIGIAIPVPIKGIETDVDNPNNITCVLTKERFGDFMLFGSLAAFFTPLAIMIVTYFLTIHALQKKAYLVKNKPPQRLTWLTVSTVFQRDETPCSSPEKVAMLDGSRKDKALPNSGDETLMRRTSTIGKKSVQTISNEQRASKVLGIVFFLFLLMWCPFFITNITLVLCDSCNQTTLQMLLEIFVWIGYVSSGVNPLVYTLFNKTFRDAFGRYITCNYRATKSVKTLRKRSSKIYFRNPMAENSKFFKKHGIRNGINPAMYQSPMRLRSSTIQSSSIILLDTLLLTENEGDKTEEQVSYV

[7] = biological target: 5-hydroxytryptamine receptor 2A (Homo sapiens, UniProt P28223); assay: Antagonist activity at serotonin 5HT2A receptor (unknown origin) by PDSP assay
Chain of 5-hydroxytryptamine receptor 2A (P28223 whole entry): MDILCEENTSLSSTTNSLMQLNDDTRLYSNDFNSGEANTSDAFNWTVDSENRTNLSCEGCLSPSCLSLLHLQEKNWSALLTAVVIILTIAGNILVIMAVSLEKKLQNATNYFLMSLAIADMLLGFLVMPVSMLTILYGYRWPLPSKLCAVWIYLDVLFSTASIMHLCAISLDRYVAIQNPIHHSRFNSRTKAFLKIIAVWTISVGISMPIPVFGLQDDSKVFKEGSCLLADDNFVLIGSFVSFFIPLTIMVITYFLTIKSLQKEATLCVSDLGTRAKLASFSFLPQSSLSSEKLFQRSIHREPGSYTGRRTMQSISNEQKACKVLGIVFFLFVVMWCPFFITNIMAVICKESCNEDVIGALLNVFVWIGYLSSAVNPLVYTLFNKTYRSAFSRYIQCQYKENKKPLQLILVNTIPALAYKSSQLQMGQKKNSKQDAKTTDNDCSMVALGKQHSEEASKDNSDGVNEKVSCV

Cholinesterase = Cholinesterase (Homo sapiens, UniProt P06276); assay: Inhibition of BuChE (unknown origin)
Chain of Cholinesterase (P06276 whole entry): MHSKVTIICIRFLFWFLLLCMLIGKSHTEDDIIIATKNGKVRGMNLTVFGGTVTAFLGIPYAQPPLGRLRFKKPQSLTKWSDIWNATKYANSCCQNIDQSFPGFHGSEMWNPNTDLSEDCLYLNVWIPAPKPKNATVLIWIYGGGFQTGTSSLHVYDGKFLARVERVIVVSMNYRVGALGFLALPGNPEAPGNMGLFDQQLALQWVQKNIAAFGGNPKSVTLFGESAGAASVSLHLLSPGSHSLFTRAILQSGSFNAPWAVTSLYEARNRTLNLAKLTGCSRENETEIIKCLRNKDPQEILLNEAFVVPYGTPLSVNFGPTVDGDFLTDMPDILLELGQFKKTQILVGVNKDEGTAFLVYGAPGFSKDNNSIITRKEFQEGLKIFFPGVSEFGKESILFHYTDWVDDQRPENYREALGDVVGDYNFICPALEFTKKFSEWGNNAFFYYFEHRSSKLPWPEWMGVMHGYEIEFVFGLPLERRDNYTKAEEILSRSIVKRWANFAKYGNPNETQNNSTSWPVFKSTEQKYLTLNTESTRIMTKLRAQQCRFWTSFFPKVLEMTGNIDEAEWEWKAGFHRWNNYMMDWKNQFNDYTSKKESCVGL

[8] = biological target: Alpha-1A adrenergic receptor (Homo sapiens, UniProt P35348); assay: Antagonist activity at adrenergic alpha1A receptor (unknown origin) by PDSP assay
Histamine H2 receptor = Histamine H2 receptor (Homo sapiens, UniProt P25021); assay: Antagonist activity at histamine H2 receptor (unknown origin) by PDSP assay
Chain of Histamine H2 receptor (P25021 whole entry): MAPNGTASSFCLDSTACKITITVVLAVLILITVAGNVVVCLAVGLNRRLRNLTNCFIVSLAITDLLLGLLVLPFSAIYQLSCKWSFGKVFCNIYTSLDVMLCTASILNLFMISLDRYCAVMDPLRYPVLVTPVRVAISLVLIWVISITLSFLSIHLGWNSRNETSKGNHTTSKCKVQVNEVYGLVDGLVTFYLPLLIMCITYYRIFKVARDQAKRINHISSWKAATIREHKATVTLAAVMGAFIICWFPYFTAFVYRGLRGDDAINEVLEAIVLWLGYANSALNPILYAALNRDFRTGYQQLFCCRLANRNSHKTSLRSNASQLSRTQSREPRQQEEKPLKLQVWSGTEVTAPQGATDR

[9] = biological target: Sodium-dependent serotonin transporter (Homo sapiens, UniProt P31645); assay: Antagonist activity at serotonin transporter (unknown origin) by PDSP assay
[10] = biological target: Alpha-1D adrenergic receptor (Homo sapiens, UniProt P25100); assay: Antagonist activity at adrenergic alpha 1D receptor (unknown origin) by PDSP assay
[11] = biological target: Alpha-2B adrenergic receptor (Homo sapiens, UniProt P18089); assay: Antagonist activity at adrenergic alpha2B receptor (unknown origin) by PDSP assay
D(1A) dopamine receptor = D(1A) dopamine receptor (Homo sapiens, UniProt P21728); assay: Antagonist activity at dopamine D1 receptor (unknown origin) by PDSP assay
[12] = biological target: 5-hydroxytryptamine receptor 7 (Homo sapiens, UniProt P34969); assay: Antagonist activity at serotonin 5HT7 receptor (unknown origin) by PDSP assay
[13] = biological target: Alpha-2A adrenergic receptor (Homo sapiens, UniProt P08913); assay: Antagonist activity at adrenergic alpha2A receptor (unknown origin) by PDSP assay
[14] = biological target: 5-hydroxytryptamine receptor 5A (Homo sapiens, UniProt P47898); assay: Antagonist activity at serotonin 5HT5A receptor (unknown origin) by PDSP assay
[15] = biological target: Muscarinic acetylcholine receptor M5 (Homo sapiens, UniProt P08912); assay: Antagonist activity at muscarinic M5 receptor (unknown origin) by PDSP assay
Chain of Muscarinic acetylcholine receptor M5 (P08912 whole entry): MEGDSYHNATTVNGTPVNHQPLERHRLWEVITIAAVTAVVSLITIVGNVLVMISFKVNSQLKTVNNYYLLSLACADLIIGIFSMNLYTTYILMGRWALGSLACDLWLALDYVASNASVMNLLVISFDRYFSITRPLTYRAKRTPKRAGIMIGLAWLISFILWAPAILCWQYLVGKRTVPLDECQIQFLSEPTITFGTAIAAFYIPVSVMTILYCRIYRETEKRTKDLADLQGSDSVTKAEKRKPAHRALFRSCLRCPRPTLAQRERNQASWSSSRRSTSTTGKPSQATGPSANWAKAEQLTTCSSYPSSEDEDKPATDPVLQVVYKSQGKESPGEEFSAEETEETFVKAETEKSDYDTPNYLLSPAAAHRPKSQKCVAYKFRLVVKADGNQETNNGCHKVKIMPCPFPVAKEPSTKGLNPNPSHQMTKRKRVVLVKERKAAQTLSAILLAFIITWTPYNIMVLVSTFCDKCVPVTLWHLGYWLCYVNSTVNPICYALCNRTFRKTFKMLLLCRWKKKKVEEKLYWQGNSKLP

[16] = biological target: 5-hydroxytryptamine receptor 1B (Homo sapiens, UniProt P28222); assay: Antagonist activity at serotonin 5HT1B receptor (unknown origin) by PDSP assay
[17] = biological target: Muscarinic acetylcholine receptor M3 (Homo sapiens, UniProt P20309); assay: Antagonist activity at muscarinic M3 receptor (unknown origin) by PDSP assay
[18] = biological target: Muscarinic acetylcholine receptor M4 (Homo sapiens, UniProt P08173); assay: Antagonist activity at muscarinic M4 receptor (unknown origin) by PDSP assay
[19] = biological target: Muscarinic acetylcholine receptor M2 (Homo sapiens, UniProt P08172); assay: Antagonist activity at muscarinic M2 receptor (unknown origin) by PDSP assay
Chain of Muscarinic acetylcholine receptor M2 (P08172 whole entry): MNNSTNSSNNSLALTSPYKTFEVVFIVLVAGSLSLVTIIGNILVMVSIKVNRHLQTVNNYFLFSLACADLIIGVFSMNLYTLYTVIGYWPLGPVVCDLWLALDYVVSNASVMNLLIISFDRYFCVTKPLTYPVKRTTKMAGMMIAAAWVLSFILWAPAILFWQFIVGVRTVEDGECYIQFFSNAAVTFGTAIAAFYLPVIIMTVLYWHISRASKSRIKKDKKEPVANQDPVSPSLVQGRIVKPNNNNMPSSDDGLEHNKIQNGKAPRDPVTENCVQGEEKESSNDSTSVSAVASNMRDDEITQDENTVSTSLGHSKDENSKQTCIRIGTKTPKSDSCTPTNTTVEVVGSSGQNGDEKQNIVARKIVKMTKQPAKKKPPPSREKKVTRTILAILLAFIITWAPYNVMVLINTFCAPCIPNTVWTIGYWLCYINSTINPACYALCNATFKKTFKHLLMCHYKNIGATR

Histamine H3 receptor = Histamine H3 receptor (Homo sapiens, UniProt Q9Y5N1); assay: Antagonist activity at histamine H3 receptor (unknown origin) by PDSP assay
[20] = biological target: Muscarinic acetylcholine receptor M1 (Homo sapiens, UniProt P11229); assay: Antagonist activity at muscarinic M1 receptor (unknown origin) by PDSP assay
Chain of Muscarinic acetylcholine receptor M1 (P11229 whole entry): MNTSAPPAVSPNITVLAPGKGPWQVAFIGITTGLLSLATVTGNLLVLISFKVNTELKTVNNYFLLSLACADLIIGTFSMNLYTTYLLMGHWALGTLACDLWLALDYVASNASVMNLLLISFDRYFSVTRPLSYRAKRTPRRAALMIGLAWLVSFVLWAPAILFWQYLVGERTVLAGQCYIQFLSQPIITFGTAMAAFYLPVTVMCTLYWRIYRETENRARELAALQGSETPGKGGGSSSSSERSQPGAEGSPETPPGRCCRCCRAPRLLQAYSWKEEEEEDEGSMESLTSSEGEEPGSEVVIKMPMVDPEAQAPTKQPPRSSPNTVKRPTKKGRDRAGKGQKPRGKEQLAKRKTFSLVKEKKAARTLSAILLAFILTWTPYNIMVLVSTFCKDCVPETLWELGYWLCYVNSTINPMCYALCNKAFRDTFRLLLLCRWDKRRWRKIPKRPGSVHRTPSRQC

[21] = biological target: Alpha-2C adrenergic receptor (Homo sapiens, UniProt P18825); assay: Antagonist activity at adrenergic alpha2C receptor (unknown origin) by PDSP assay
Histamine H1 receptor = Histamine H1 receptor (Homo sapiens, UniProt P35367); assay: Antagonist activity at histamine H1 receptor (unknown origin) by PDSP assay
Chain of Histamine H1 receptor (P35367 whole entry): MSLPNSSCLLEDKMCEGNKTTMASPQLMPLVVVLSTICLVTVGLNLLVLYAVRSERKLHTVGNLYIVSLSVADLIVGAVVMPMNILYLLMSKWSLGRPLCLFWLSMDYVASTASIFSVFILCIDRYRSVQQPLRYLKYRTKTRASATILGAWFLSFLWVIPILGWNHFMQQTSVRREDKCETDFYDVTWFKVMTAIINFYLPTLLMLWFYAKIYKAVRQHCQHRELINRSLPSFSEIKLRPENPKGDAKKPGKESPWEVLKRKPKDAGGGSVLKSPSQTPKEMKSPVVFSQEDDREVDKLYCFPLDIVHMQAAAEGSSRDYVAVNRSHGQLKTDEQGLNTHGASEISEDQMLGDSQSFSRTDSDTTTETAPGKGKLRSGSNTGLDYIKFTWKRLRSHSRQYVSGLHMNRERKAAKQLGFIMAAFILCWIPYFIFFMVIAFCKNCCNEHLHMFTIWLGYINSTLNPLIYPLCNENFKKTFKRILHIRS

[22] = biological target: 5-hydroxytryptamine receptor 3A (Homo sapiens, UniProt P46098); assay: Antagonist activity at serotonin 5HT3 receptor (unknown origin) by PDSP assay
[23] = biological target: 5-hydroxytryptamine receptor 1D (Homo sapiens, UniProt P28221); assay: Antagonist activity at serotonin 5HT1D receptor (unknown origin) by PDSP assay

Chain of Sodium-dependent dopamine transporter (Q01959 whole entry): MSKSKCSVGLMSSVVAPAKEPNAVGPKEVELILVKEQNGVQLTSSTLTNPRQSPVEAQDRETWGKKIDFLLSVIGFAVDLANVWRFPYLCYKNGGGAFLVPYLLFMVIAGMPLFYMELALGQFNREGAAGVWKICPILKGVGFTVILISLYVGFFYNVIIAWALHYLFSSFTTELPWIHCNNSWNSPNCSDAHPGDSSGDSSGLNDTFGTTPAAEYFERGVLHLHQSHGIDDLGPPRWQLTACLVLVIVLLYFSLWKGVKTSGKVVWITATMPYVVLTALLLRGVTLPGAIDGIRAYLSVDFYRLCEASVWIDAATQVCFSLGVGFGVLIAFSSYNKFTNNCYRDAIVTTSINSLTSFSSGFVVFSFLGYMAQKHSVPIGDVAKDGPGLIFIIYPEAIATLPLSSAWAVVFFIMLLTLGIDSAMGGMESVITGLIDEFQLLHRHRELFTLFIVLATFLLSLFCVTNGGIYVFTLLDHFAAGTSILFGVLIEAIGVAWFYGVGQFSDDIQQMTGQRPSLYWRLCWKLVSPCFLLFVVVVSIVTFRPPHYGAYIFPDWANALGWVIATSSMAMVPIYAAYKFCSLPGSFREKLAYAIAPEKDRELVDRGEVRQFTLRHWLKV
Chain of D(3) dopamine receptor (P35462 whole entry): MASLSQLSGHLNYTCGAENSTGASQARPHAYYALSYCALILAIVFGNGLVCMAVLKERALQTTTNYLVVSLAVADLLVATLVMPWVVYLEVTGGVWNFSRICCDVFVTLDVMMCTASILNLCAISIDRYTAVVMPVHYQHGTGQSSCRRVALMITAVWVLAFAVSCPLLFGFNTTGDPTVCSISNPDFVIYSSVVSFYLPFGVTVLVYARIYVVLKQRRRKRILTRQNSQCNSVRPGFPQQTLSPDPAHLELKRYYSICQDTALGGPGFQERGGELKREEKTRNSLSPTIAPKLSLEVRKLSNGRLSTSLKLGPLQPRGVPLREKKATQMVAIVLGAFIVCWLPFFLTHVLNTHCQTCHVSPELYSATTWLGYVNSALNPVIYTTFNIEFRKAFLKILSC

In the case of `O=C(c1cccc(Br)c1)N1c2ccccc2Sc2ccccc21`, the Ki [1] is reported as 0.092 µM.
`CC(C(=O)N1c2ccccc2Sc2ccccc21)c1ccccc1` (stereo not drawn) was tested, and the Ki (D(3) dopamine receptor) was 8900 nM, the Ki [2] was 1.2 µM and the Ki [3] was 2500 nM. It also gave a Ki [4] of 390 nM, a Ki [5] of 1100 nM and a Ki [6] of 170 nM. The Ki [7] was 180 nM.
`O=C(C1CCCCCC1)N1c2ccccc2Sc2ccccc21` gave a Ki (Cholinesterase) of 860 nM and a Ki [7] of 1700 nM.
`O=C(Cc1ccc2ccccc2c1)N1c2ccccc2Sc2ccccc21` gave a Ki [8] of 330 nM, a Ki [2] of 9.9 µM and a Ki [4] of 2200 nM. For the same compound, the Ki [6] was 2000 nM, the Ki [1] was 6.6 µM and the Ki (Cholinesterase) was 30 nM.
`O=C(CCCc1ccccc1)N1c2ccccc2Sc2ccccc21` was tested, and the Ki (Histamine H2 receptor) was 7500 nM, the Ki [9] was 3.8 µM and the Ki [10] was 4.1 µM. It also gave a Ki [3] of 1700 nM, a Ki [1] of 3.3 µM and a Ki [7] of 1600 nM.
In the case of `O=C(Oc1cccc2ccccc12)N1c2ccccc2Sc2ccccc21`, the Ki [1] is reported as 3.9 µM and the Ki (Cholinesterase) is reported as 40 nM.
In the case of `O=C(OCCN1CCCC1)N1c2ccccc2Sc2ccccc21`, the Ki [11] is reported as 800 nM, the Ki (D(1A) dopamine receptor) is reported as 5.9 µM and the Ki [12] is reported as 330 nM. The Ki [13] was 95 nM, the Ki [14] was 2200 nM and the Ki [15] was 6 nM. The Ki [16] was 2200 nM, the Ki [17] was 66 nM and the Ki [18] was 54 nM. It also gave a Ki [19] of 100 nM, a Ki (Histamine H3 receptor) of 6 µM and a Ki [20] of 2 nM. For the same compound, the Ki [21] was 830 nM, the Ki (Histamine H1 receptor) was 29 nM and the Ki [22] was 1900 nM. For the same compound, the Ki (Histamine H2 receptor) was 540 nM, the Ki (D(3) dopamine receptor) was 1000 nM and the Ki [4] was 940 nM. For the same compound, the Ki [5] was 1700 nM, the Ki [6] was 100 nM and the Ki [1] was 0.97 µM. The Ki [7] was 2400 nM.
`CCN(CC)CCCOC(=O)N1c2ccccc2Sc2ccccc21` showed a Ki [15] of 120 nM, a Ki [17] of 170 nM and a Ki [18] of 21 nM. For the same compound, the Ki [19] was 220 nM, the Ki (Histamine H3 receptor) was 0.96 µM and the Ki [20] was 64 nM. It also gave a Ki [21] of 600 nM, a Ki (Histamine H1 receptor) of 430 nM and a Ki [22] of 3900 nM. It also gave a Ki [23] of 2700 nM, a Ki (Histamine H2 receptor) of 1400 nM and a Ki (D(3) dopamine receptor) of 1000 nM. It also gave a Ki [4] of 3100 nM, a Ki [5] of 450 nM and a Ki [6] of 630 nM. The Ki [1] was 6 µM and the Ki [7] was 3600 nM.
